The values below are quoted from earlier work in patent publication EP0266968A2, “Gelled ointment of vasodilating agent” (Cohen, Gérard G., priority 1986, dated 1988).

In the data set the test system is penile arteries.

`COc1ccc(Cc2nccc3cc(OC)c(OC)cc23)cc1OC` [papaverine]: the “erections in the organic group” value (29 organic impotent males, intracavernous injection) is “delayed, weaker and shorter erections”. Besides, under “40 to 160 mg injected intracavernously”, the “duration of penile erections” value is “approximately 2 hours”. For the same compound, under “63 patients with angiogenic impotence, repeated intracavernous injections completed by infusion of heparinized saline, mean follow up of one year”, the “patients whose erections improved significantly” value is given as 66%. The “haemodynamic and radiologic studies” value (done concomitantly with intracavernous injection) was “strong vasodilation in the penile arteries (even when pathologic) and diminished outflow from the cavernous bodies”.
